Among the data in ChEMBL document CHEMBL2202993, “Non-proteinogenic amino acids in the pThr-2 position of a pentamer peptide that confer high binding affinity for the polo box domain (PBD) of polo-like kinase 1 (Plk1)” (Bioorg Med Chem Lett, 2012) are IC50 values, retold here.

Each structure is given as a SMILES string. Numbered stars: 1 amine (or outer) side, 2 acyl side, 3 side chain; on linkers, the order of the positions; unused ones are H or OH. Square brackets hold non-standard residues; d marks the D form. Peptide text beside a SMILES is read from it. X2 = O=C([C@H](Cc1cn(CCCCCCCCc2ccccc2)c2ccccc12)N[*:1])[*:2]; X1 = O=C([C@H](Cc1cn(CCCCCCCCc2ccccc2)cn1)N[*:1])[*:2]; pT = C[C@@H](OP(=O)(O)O)[C@H](N)C(=O)O

For this experiment, the target named is Serine/threonine-protein kinase PLK1 (Homo sapiens, UniProt P53350). The experiment in a line: Competitive binding affinity to GFP-HA-fused PLK1 polo box domain expressed in HEK293A cells using biotinylated p-T38 peptide as substrate after 1 hr by ELISA. The arrangement: species or system HEK293-A. (In an ELISA, binding on a coated surface is turned into a signal by an enzyme label.)
Serine/threonine-protein kinase PLK1, sequence (P53350 whole entry, the tested form may be a part): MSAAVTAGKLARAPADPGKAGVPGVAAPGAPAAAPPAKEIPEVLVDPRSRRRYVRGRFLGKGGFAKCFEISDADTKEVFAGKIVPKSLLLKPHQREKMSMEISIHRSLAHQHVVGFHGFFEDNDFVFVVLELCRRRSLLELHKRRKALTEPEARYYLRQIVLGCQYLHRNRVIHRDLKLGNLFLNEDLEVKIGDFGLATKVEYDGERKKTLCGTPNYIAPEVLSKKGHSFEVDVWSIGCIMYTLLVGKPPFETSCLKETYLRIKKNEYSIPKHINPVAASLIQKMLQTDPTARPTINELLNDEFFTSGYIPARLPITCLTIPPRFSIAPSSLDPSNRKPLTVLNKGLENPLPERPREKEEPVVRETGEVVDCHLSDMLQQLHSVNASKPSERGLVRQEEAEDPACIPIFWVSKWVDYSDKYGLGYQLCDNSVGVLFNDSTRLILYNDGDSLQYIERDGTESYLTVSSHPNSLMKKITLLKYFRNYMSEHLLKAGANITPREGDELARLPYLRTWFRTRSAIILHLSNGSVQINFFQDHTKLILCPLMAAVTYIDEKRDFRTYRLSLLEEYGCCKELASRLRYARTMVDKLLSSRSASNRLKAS

In general, IC50 refers to the concentration that inhibits the measured activity by half. Low readings indicate inhibition by little substance, high ones a need for much substance. `CC(=O)N1CCC[C@H]1C(=O)N[C@@H](CC(C)C)C(=O)N[C@@H](Cc1cn(CCCCCCCCc2ccccc2)c2ccccc12)C(=O)N[C@@H](CO)C(=O)N[C@H](C(N)=O)[C@@H](C)OP(=O)(O)O` (Ac-PL[X2]S[pT]-NH2) had a concentration for half-maximal inhibition (IC50) of 9.3 µM.
With `CC(=O)N1CCC[C@H]1C(=O)N[C@@H](CC(C)C)C(=O)N[C@@H](Cc1cn(CCCCCCCCc2ccccc2)cn1)C(=O)N[C@@H](CO)C(=O)N[C@H](C(N)=O)[C@@H](C)OP(=O)(O)O` (Ac-PL[X1]S[pT]-NH2) the figure was 0.32 µM.
